From patent publication US4044043A, “Derivatives of 9-oxo-13-trans-prostenoic acid esters” (American Cyanamid Company, priority 1975, dated 1977)
Values after ≈ are worked out from the molar mass of the structure shown.

System: Mycobacterium smegmatis ATCC 606
Experiment: agar-dilution streak-plate antimicrobial assay
Assay type: cell-based
Conditions: Mycolicibacterium smegmatis, ATCC606, read-out: Minimal inhibitory conc. (6)
Method: The novel compounds of the present invention are also useful as antimicrobial agents. […] In this assay, the compounds to be tested are made up to contain 2.5 mg. of test compound per milliliter of solution. Observing sterile techniques, two-fold serial dilution are made of each test solution. One milliliter of each of the original solutions and of each of the serial dilutions is then added to 9 ml. of warm sterile nutrient agar capable of supporting growth of the bacterial test cultures. A second set of agar dilutions is prepared identical to the first except that the nutrient agar is designed to support the growth of the fungal test cultures. […] The test bacteria and yeast-like fungi are prepared for use by growing in broth overnight. The spores of the filamentous fungi are harvested from mature agar slant cultures and are suspended in sterile physiological saline solution. A loopful of each of the resulting live suspensions is then, still employing sterile techniques, streaked upon the surfaces of each of the agar plates and the resulting streaked plates are then incubated. After an appropriate period of time, each of the streaks on each of the plates is inspected visually and the extent, if any, of bacterial or fungal growth is noted. The minimal inhibitory concentration (expressed in micrograms per milliliter) is defined as the concentration of test compound causing complete inhibition of growth of any particular organism. In a representative operation, and merely by way of illustration, the minimal inhibitory concentration of typical compounds of the present invention against a variety of test organisms as determined in the above-described assay are set forth in Tables II and III below: […]

MIC [µg/mL]	Compound
250 (≈ 775 µM)	CCCCCC/C=C/[C@H]1CCC(=O)[C@@H]1CCCCC(=O)OCC (relative stereo) [ethyl 9-oxo-6,7-dinor-13-trans-prostenoate]
25 (≈ 70.9 µM)	CCCCCC/C=C/[C@H]1CCC(O)[C@@H]1CCCCCCC(=O)OCC (stereo partly drawn) [ethyl 9-hydroxy-13-trans-prostenoate, ethyl 9α- and 9β-hydroxy-13-trans-prostenoate]
62 (≈ 130 µM)	CCOC(=O)CCCCCC[C@H]1C(=O)CC[C@@H]1/C=C/CCCCCCI (relative stereo) [ethyl 20-iodo-9-oxo-13-trans-prostenoate]

System: gastric acid secretion
Experiment: Inhibition of Gastric Acid Secretion (Pylorous-Ligated Rat), Shay rat procedure
Assay type: in vivo, rats (male, CFE strain)
Conditions: 100 mg./kg. intraduodenal, read-out: % Inhibition of Control Gastric Acid Secretion
Description: The novel compounds of the present invention are also effective inhibitors of gastric acid secretion and of ulcer development in experimental animals, and thus are potentially valuable as agents for the control of gastric acid secretion and of gastric erosion and as anti-ulcer agents. Gastric acid secretion inhibitory action is usually measured by the Shay rat procedure ^(1,2) with some modifications as follows. 6 1. Shay et al., Gastroenterology, 5, 43 (1945). 6 2. Shay et al., Gastroenterology, 26, 906 (1954).
The rats (male, CFE strain) were starved for 48 hours (water was given ad libitum) to permit evacuation of stomach contents. On the morning of the experiment, under ether anesthesia, the abdominal region was shaved and a midline incision (1-1 1/2 inch) was made with a scalpel. With the help of a closed curved hemostat the duodenum was picked up. Upon getting the duodenum into view fingers were used to pull the stomach through the opening, the stomach was then gently manipulated with fingers to rid stomach of air and residual matter which were pushed through the pylorus. Two 5-inch sutures were drawn under the pyloric-duodenal puncture. A ligature, at the juncture, was formed with one of the threads. The second ligature was also formed but not tightened.
The test compound or the vehicle, usually 1 ml./100 g. body weight, were injected into the duodenum as close as possible to the first ligature. After injection the second ligature was tightened below the injection site to minimize leakage. The stomach was placed back through the opening into the abdominal cavity, the area of incision was washed with saline and the incision was closed with autoclips. (Ocasionally instead of an intraduodenal injection, animals were dosed by the oral or subcutaneous route. In the latter case, dosing was done thirty to sixty minutes before the operation).
The abdominal cavity was exposed by cutting with scissors and the esophagus close to the stomach was clamped off with a hemostat, the stomach was removed by cutting above the hemostat (the esophagus was cut) and between the two sutures. Extraneous tissue was removed, the stomach washed with saline and blotted on gauze. A slit was carefully made in the stomach which was held over a funnel and the contents were collected in a centrifuge tube. The stomach was further cut along the outside edge and turned inside out. Two ml. of water were used to wash the stomach contents into the respective centrifuge tube. The combined stomach contents and wash were then centrifuged out for 10 minutes in the International Size 2 Centrifuge (setting at 30). The supernatant was collected, volume measured and recorded, 2 drops of phenolphthalein indicator (1% in 95% ethanol) were added and the solution was titrated with 0.02N NaOH (or with 0.04N NaOH when large volumes of stomach contents were encountered) to pH 8.4 (because of usual coloring of the stomach contents, phenolphthalein was only used to permit visual indication that the end point was near) and the amount of acid present was calculated.
Compounds inducing inhibition of gastric acid secretion of 20% or more were considered active. In a representative operation, and merely by way of illustration, the results obtained with this assay with typical compounds of the present invention are given in Table IIIA.

Compound	inhibition in vivo at 100 mg/kg [%]
CCCCCC/C=C/[C@@H]1CCC(=NNc2cc(Cl)ccc2Cl)[C@H]1CCCCCCC(=O)O (relative stereo) [9-Oxo-13-trans-prostenoic acid 2,5-dichlorophenylhydrazone]	30
CCCCCC/C=C/[C@H]1CCC(=O)[C@@H]1CCCCCCC(=O)OCC (relative stereo) [ethyl 9-oxo-13-trans-prostenoate]	28
CCOC(=O)CCCCCC[C@H]1C(=O)CC[C@@H]1/C=C/CCCS(=O)(=O)CC (relative stereo) [ethyl 9-oxo-18-dioxythia-13-trans-prostenoate]	34
CCCCCC/C=C/[C@@H]1CCC(=O)[C@H]1CCCCCCC(=O)OCCCC (relative stereo) [butyl 9-oxo-13-trans-prostenoic acid]	46
CCCCCCC=CC1CC(F)C(=O)C1CCCCCCC(=O)OCC (stereo not drawn) [Ethyl 10-fluoro-9-oxo-13-trans-prostenoate]	25
CCCCCC/C=C/[C@H]1CCCC(=O)[C@@H]1CCCCCCC(=O)OCC (relative stereo) [ethyl 9-oxo-10a-homo-13-trans-prostenoate]	46
CCOC(=O)CCCCCC[C@H]1C(=O)CC[C@@H]1/C=C/CCCCCCI (relative stereo) [ethyl 20-iodo-9-oxo-13-trans-prostenoate]	42
CCCC=CC1CCC(=O)C1CCCCCC(F)C(=O)OCC (stereo not drawn) [ethyl 9-oxo-2-fluoro-18,19,20-trinor-13-trans-prostenoate]	84
CCCCCCC=CC1CC(c2ccccc2)C(=O)C1CCCCCCC(=O)OCC (stereo not drawn) [Ethyl 9-oxo-10-phenyl-13-trans-prostenoate]	24
CCC/C=C/[C@H]1CCCC(=O)[C@@H]1CCCCCCC(=O)OCC (relative stereo) [ethyl 9-oxo-18,19,20-trinor-10a-homo-13-transprostenoate]	37
CCC/C=C/[C@@H]1CCC(=O)[C@H]1CCCCOCC(=O)OCC (relative stereo) [ethyl 9-oxo-3-oxa-18,19,20-trinor-13-trans-prostenoate]	65
CCC/C=C/[C@@H]1CCCC(=O)[C@H]1CCCCCCC(=O)O (relative stereo) [9-oxo-18,19,20-trinor-10a-homo-13-trans-prostenoic acid]	39
CCCCCCC=CC1CC(SC)C(=O)C1CCCCCCC(=O)OCC (stereo not drawn) [Ethyl 10-methylthio-9-oxo-13-trans-prostenoate]	35
CCCCCC/C=C/[C@@H]1CCC(=O)[C@H]1CCCCSCC(=O)OCC (relative stereo) [ethyl 9-oxo-3-thia-13-trans-prostenoate]	39
CCCCCCC/C=C/[C@H]1CCC(=O)[C@@H]1CCCCCCC(=O)OCC (relative stereo) [ethyl 20-methyl-9-oxo-13-trans-prostenoate]	36

System: diastolic blood pressure
Experiment: Prostaglandin-like hypotensive activity in anesthetized rats (minimal dose for about 10 mm. decrease in diastolic blood pressure)
Assay type: in vivo, Male Wistar strain rats
Conditions: Rattus norvegicus; intravenous; decrease of about 10 mm. in diastolic blood pressure
Method: This procedure is a modification of the technique described by Pike et al., Prostaglandins, Nobel Symposium 2, Stockholm, June, 1966; p, 165.
Male Wistar strain rats (Royal Hart Farms) averaging approximately 250 grams in weight were fastened to rat boards in a supine position by means of canvas vests and limb ties. The femoral area was infiltrated subcutaneously with lidocaine and the iliac artery and vein exposed and cannulated. Arterial blood pressure (systolic/diastolic) was recorded using a Statham P23 Db pressure transducer-Offner dynograph system. To obtain a stable blood pressure, the animals were anesthetized before use with pentobarbital, 30 mg./kg. of body weight intravenously, and also were given hexamethonium bitartrate, 2 mg./kg. of body weight intravenously. The test compounds were prepared by ultrasonic dispersion in a saline-Tween 80 ® vehicle. A constant intravenous dose volume of 0.5 ml. was administered and test doses ranged from 0.1 to 10.0 mg./kg. of body weight. Increasing or decreasing doses were selected depending on the dose response obtained. In Table I below are set forth the minimal doses required to produce a decrease of about 10 mm. in diastolic blood pressure for typical compounds of the present invention.

Compound	minimal effective dose [mg/kg]
CC[S+]([O-])CCC/C=C/[C@@H]1CCC(=O)[C@H]1CCCCCCC(=O)O (relative stereo) [9-oxo-18-oxythia-13-trans-prostenoic acid]	2 to 8
CCCCCC/C=C/[C@H]1CCC(=O)[C@@H]1CCCCCCC(=O)OCC (relative stereo) [ethyl 9-oxo-13-trans-prostenoate]	0.5
CC/C=C\CC/C=C/[C@H]1CCC(=O)[C@@H]1CCCCCCC(=O)OCC (relative stereo) [ethyl 9-oxo-13-trans-17-cis-prostadienoate]	0.2 to 2
CCCCCC/C=C/[C@H]1CCCC(=O)[C@@H]1CCCCCCC(=O)OCC (relative stereo) [ethyl 9-oxo-10a-homo-13-trans-prostenoate]	2
CCCCCCC/C=C/[C@H]1CCC(=O)[C@@H]1CCCCCCC(=O)OCC (relative stereo) [ethyl 20-methyl-9-oxo-13-trans-prostenoate]	0.5

System: dl-PGE1-induced contraction of gerbil colon
Experiment: Inhibition of dl-PGE1-Induced Contraction of Gerbil Colon (prostaglandin antagonist action)
Assay type: cell-based, gerbils (Meriones unguiculatus)
Conditions: Meriones unguiculatus, 1 min; sub-maximal challenge, 20 ng./ml. dl-PGE1; 50% inhibition of maximum response; read-out: ID50 vs. 20 ng. of PGE1/ml.
Method: The compounds of this invention are also useful as antagonists of prostaglandin action and accordingly they are potentially useful as anti-inflammatory agents, and as agents for the treatment of periodontal diseases and diarrhea. Testing for prostaglandin antagonist action is carried out in the following manner. Sections of ascending colon, approximately 20 mm. long, from mature male gerbils (Meriones unguiculatus) weighing 70-80 g. were mounted in De Jalon's solution (154 mM NaCl; 5.95 mM NAHCO3; […], 5.64 mM KC and .27 mM CaCl2 in 20 ml. tissue baths) (L and K Glass Co., Lynnhurst, N.J.). The medium was continually gassed with a mixture of 95% 02 -5% CO2 and maintained at 37° C. The tissues were suspended via silk suture threads between a glass hook at the base and a model FT .03C force displacement transducer (Grass Instruments, Quincy, Massachusetts). Contractions were recorded on a Poly-Viso ® polygraph (Sanborn Co., Cambridge, Massachusetts). After mounting, tissues were allowed to stabilize 15-20 minutes during which time adjustments were made to establish and maintain a 0.5 g. resting tension on the muscle. Thereafter, test cycles of 3-5 minutes were begun and consisted of a 1 minute exposure to the potential antagonist, if called for, followed by a 1 minute exposure to the prostaglandin agonist, a 15-30 sec. washout and a recovery period of 2-2.5 minutes. […] During the washout period, the tissue was rinsed with a measured amount equalling 8 volumes of medium. Muscle relaxation was virtually complete by the end of the washout period. During preliminary tests it was noted that a final concentration of 200 ng./ml. of a racemic mixture of synthetic prostaglandin-E1 (dl-PGE1) produced maximal muscle contraction. Following stabilization, muscles were exposed 2 to 3 times to this concentration of dl-PGE1 until a consistent response was recorded. Once maximal responses were established, test cycles with potential antagonists were commenced and were followed alternately with prostaglandin-only test cycle. […] The contraction of the muscle induced by 200 ng./ml. dl-PGE1 following exposure to a given concentration of the potential antagonist was always compared to the response of the tissue to that level of dl PGE1 in the immediately preceding cycle. Using a series of potential antagonist concentrations, an approximate ID50 (concentration at which 50% inhibition was observed) was established. The compounds were also tested against a sub-maximal prostaglandin challenge (20 ng./ml. dl-PGE1) in which case activity is reported in terms of a 50% inhibition of maximum response.

IC50 [µg/mL]	Compound
25 to 30 (≈ 89.2 to 107 µM)	CC(C)/C=C/[C@H]1CCC(=O)[C@@H]1CCCCCCC(=O)O (relative stereo) [15-methyl-9-oxo-17,18,19,20-tetranor-13-trans-prostenoic acid]
10 to 25 (≈ 26.6 to 66.6 µM)	CCCCCCC=CC1CC(C#N)C(=O)C1CCCCCCC(=O)OCC (stereo not drawn) [Ethyl 10-cyano-9-oxo-13-trans-prostenoate]
1 (≈ 3.4 µM)	CCC/C=C/[C@@H]1CCCC(=O)[C@H]1CCCCCCC(=O)O (relative stereo) [9-oxo-18,19,20-trinor-10a-homo-13-trans-prostenoic acid]

Same assay, conditions: agonist alone, preliminary tests

Compound	final concentration that produced maximal muscle contraction [ng/mL]
CCCCC[C@H](O)/C=C/[C@H]1[C@H](O)CC(=O)[C@@H]1CCCCCCC(=O)O (relative stereo) [dl-PGE1, prostaglandin-E1, reference compound]	200
